Values of other authors, collected in patent publication US20170189443A1, “COMPOSITIONS AND METHODS FOR TREATMENT OF DISEASES AND CONDITIONS EMPLOYING ORAL ADMINISTRATION OF SODIUM PENTOSAN POLYSULFATE AND OTHER PENTOSAN POLYSULFATE SALTS” (URIGEN PHARMACEUTICALS, INC., priority 2014, published 2017).
Read-outs that look alike come from different tables or passages of the source.

Assays:
[1] = system: interstitial cystitis; conditions: intravesical instillations
[2] = system: interstitial cystitis; conditions: intravesical
[3] = oral administration
[4] = tritiated pentosan polysulfate, healthy human volunteers, Simon et al. 2005

Q: Which “IC patients treated with benefit” value [1] does the source give for `C[S+](C)[O-]` [DMSO, dimethylsulfoxide] here?
A: Its value is ~50%.

Q: What does the source list for `O=S(=O)(O)CCS` [Mesnex, mesna]?
A: frequency of adverse events (all AEs) (IV): 85%; frequency of adverse events (all AEs) (oral): 89%

Q: For heparin, which “patients treated in whom the agent is effective” value [2] is on record?
A: Its value is “approximately 50%”.

Q: With sodium pentosan polysulfate as the molecule, how does the oral availability [3] read?
A: The oral availability was 2-6%.

Q: What about the excreted through urine [4] of the same molecule?
A: The excreted through urine was 6%.

Q: And the “excreted unchanged in feces” value [4]?
A: Its value is “more than 94%”.
